The record followed here is patent publication US20180371076A1, “MATERNAL TH17 CELLS AND PSYCHIATRIC DISORDERS” (New York University, priority 2017, published 2018).

One data set relates to IL-1β. Kind of data set: IL-1β ELISA of maternal serum. It is filed as in vivo, mouse. The following applies: poly(I:C) at E12.5, 3 h, vs PBS. Here is the method: (§1) Cell preparation, Flow cytometry, ELISA Embryos at each implantation site were dissected in ice-cold HBSS containing Ca2+ and Mg2+ (Gibco). Myometrium was first peeled off of the decidua and embryos were discarded. Dissected decidual and placental tissues were then minced and enzymatically dissociated in HBSS containing 0.28 Wunsch units (WU)/mL Liberase (Roche) and 30 μg/mL DNase I (Roche) for 30 min at 37° C. with intermittent mixing. Digested tissues were washed in PBS containing 5 mM EDTA and 5% fetal bovine serum and then incubated again in the same buffer for 15 min at 37° C. prior to filtration through a cell strainer. […] Intracellular cytokine staining was performed according to the manufacturer's protocol (Cytofix/Cytoperm buffer set from BD with Pacific Blue-conjugated CD4, FITC or PerCP-Cy5.5-conjugated CD8, APC4 Cy7-conjugated TCR-β, PE-Cy7-conjugated anti-IL-17a, PE-conjugated anti-IFN-γ, PECy7-conjugated anti-CD25 and PE-conjugated Foxp3 (eBioscience). LSR II (BD Biosciences) and FlowJo software (Tree Star) were used for flow cytometry and analysis. Dead cells were excluded using the Live/Dead fixable aqua dead cell stain kit (Invitrogen). For ELISA with sera and placenta/decidua extract, IL-6 (Ebioscience), IL-17a, TNF-α, IL-1β, IFN-β (Biolgened), and IL-10 (BD) were measured according to the manufacturer's protocol.
For orientation: In an ELISA, binding on a coated surface is turned into a signal by an enzyme label.

Data set [1] has as its system offspring of pregnant mice (MIA mouse model). In words: Marble burying test in adult offspring. Format: in vivo. From the text: Maternal Immune Activation. Mice were mated overnight and females were checked daily for the presence of seminal plugs, noted as embryonic day 0.5 (E0.5). […] Each dam was returned to its cage and left undisturbed until the birth of its litter. All pups remained with the mother until weaning on postnatal day 21 (P21), at which time mice were group housed at maximum 5 per cage with same-sex littermates. […]
Marble burying test. […] At the end of a 15-min exploration period, mice were gently removed from the testing cages and the number of marbles buried was recorded. A marble burying index was scored as 1 for marbles covered >50% by bedding, 0.5 for ˜50% covered, or 0 for anything less. […]
Marble burying test One week following the social approach task, male mice were acclimated for 0.5-1 h in separate clean holding cages. […] At the end of a 15-min exploration period, mice were gently removed from the testing cages and the number of marbles buried was recorded. A marble burying index was scored as 1 for marbles covered >50% by bedding, 0.5 for ˜50% covered, or 0 for anything less. […]

Data set [2] has the same test system. In words: Open field test in adult offspring. It is filed as in vivo. How it is done:
Maternal Immune Activation. Mice were mated overnight and females were checked daily for the presence of seminal plugs, noted as embryonic day 0.5 (E0.5). On E12.5, pregnant female mice were weighed and injected with a single dose (20 mg/kg; i.p.) of poly(I:C) (Sigma Aldrich) or PBS vehicle. Each dam was returned to its cage and left undisturbed until the birth of its litter. All pups remained with the mother until weaning on postnatal day 21 (P21), at which time mice were group housed at maximum 5 per cage with same-sex littermates. For the IL-17 cytokine blockade experiment, monoclonal IL-17a blocking antibody (clone 50104; R&D) or isotype control antibody (IgG2a, clone 54447; R&D) was administered 6 h before maternal immune activation (FIG. 2) via i.p. route (500 μg/animal) or 2 days after maternal immune activation (FIG. 5) via i.p. route (500 μg/animal).
Open field test. Adult mice were placed in a 50×50 cm white Plexiglas box. Activity was recorded by a video camera and data was analyzed with Ethovision software (Noldus). The software allows display of the paths taken by the mice, and it measures the total distance moved into the center of the arena in a 10 min session.

For a further data set, the system named is Th17 cells. In words: Flow cytometry of placenta/decidua CD4+ T cells: Th17. Format: in vivo, mouse. To be noted: poly(I:C) vs PBS treatment, pregnant dams. Here is the method:
as §1

On to poly(I:C), for which the “serum IL-1β” value in the data set with IL-1β is recorded as “strong induction”. Moreover, the “marble burying in adult offspring” value in data set [1] (poly(I:C)-injected vs PBS-injected mothers) is “enhanced marble burying”. Moreover, the “total distance covered in open field” value in data set [2] (offspring of MIA mothers) is given as “did not affect the total distance covered”. Further, in data set [2] (offspring of poly(I:C)-injected WT or RORγ/γt HET animals vs PBS-injected WT), the “time in the center of an open field” value is “significantly reduced time in the center”. Further, in the data set on Th17 cells, the “placenta/decidua-associated Th17 cells” value is recorded as “increased”.

B1: recombinant IL-17a protein: Recombinant mouse IL-17a cytokine (R&D), injected into the fetal brain ventricle (protein, UniProt Q62386 26-158, looked up)
Interleukin-17A: AAIIPQSSACPNTEAKDFLQNVKVNLKVFNSLGAKVSSRRPSDYLNRSTSPWTLHRNEDPDRYPSVIWEAQCRHQRCVNAEGKLDHHMNSVLIQQEILVLKREPESCPFTFRVEKMLVGVGCTCVASIVRQAA
For the molecule B1, the marble burying behavior entry in data set [1] (intra-ventricular injection at E14.5, compared with sham injection) is recorded as “increased marble burying behavior”.
